Results from patent US20210059977A1, “COMBINATION THERAPIES FOR THE TREATMENT OF AMYOTROPHIC LATERAL SCLEROSIS AND RELATED DISORDERS” (The General Hospital Corporation, priority 2018, published 2021).

Tests used:
Type in all cases: in vivo, mice
[1] = tested on: lumbar spinal cord motor neurons; experiment: Motor neuron quantification (H&E); details: TgSOD1-Cromolyn vs TgSOD1-Vehicle; p=0.0033
Description: Longitudinal sections (10 μm) of the lumbar spinal cord were cut from fresh frozen tissue. Hematoxylin and eosin (H&E) staining was performed on the tissue sections as previously described. Within the region containing the ventral horn, all motor neurons are counted for three individual sections per animal (each separated by […]) to cover the areas of highest motor neuron density within the ventral horn. All counting was performed by an individual blinded to the genotypes. Images were acquired using a Zeiss microscope 20× objective (0.8 NA) and processed with Metamorph image analysis software (Molecular Devices).
(§1) 149 male and female age- and litter-matched transgenic (Tg) SOD1^G93A and wild-type (Wt) SOD1^G93A mice were used with the following breakdown: Females (19 WtSOD1-Vehicle, 17 WtSOD1-Cromolyn, 19 TgSOD1-Vehicle, and 17 TgSOD1-Cromolyn) and Males (18 WtSOD1-Vehicle, 21 WtSOD1-Cromolyn, 21 TgSOD1-Vehicle, 17 TgSOD1-Cromolyn).

SOD1^G93A mouse model [2] = experiment: Neurological scoring (ALS TDI criteria); details: 6.3 mg/kg i.p.
Description: Beginning at P50, weight and neurological score (using the ALS TDI criteria) (Hatzipetros, T., et al. (2015). “A Quick Phenotypic Neurological Scoring System for Evaluating Disease Progression in the SOD1-G93A Mouse Model of ALS.” J Vis Exp(104); Leitner M., et. al. (2009). “Working with ALS mice: Guidelines for preclinical testing & colony management.” The Jackson Laboratory) were recorded for each mouse every 5 days until death or euthanasia. ALS TDI criteria are as follows: • Score of 0: Full extension of hind legs away from lateral midline when mouse is suspended by its tail, and mouse can hold this for two seconds, suspended two to three times. • Score of 1: Collapse or partial collapse of leg extension towards lateral midline (weakness) or trembling of hind legs during tail suspension. • Score of 2: Toes curl under at least twice during walking of 12 inches, or any part of foot is dragging along cage bottom/table. • Score of 3: Rigid paralysis or minimal joint movement, foot not being used for generating forward motion. • Score of 4: Mouse cannot right itself within 15 seconds after being placed on either side. *Mice were euthanized upon obtaining a score of 4.
as §1

[3] = tested on: pro-inflammatory cytokines and chemokines in plasma; experiment: Meso Scale Discovery multi-spot cytokine assay, plasma
Description: Spinal cord frozen tissue was homogenized in ice-cold RIPA buffer (Thermo Fisher Scientific, #8990) supplemented with protease inhibitor cocktail (Thermo Fisher Scientific, #78430). Samples were centrifuged at 45,000 g for 30 minutes at 4° C. using an Optima TL ultracentrifuge and a TLA 120.2 rotor (Beckman Coulter). Expression levels of 10 pro-inflammatory cytokines and chemokines were assessed in the supernatants derived from spinal cord tissue or in the plasma, using an electrochemiluminescence-based multi-array method and MESO Quickplex SQ 120 system (MSD, Rockville, Md., USA). The 96-well V-PLEX Proinflammatory Mouse 1 Kit (Meso Scale Discovery, #K15048D) was used to measure simultaneously IFN-γ, IL-1β, IL-2, IL-4, IL-5, IL-6, CXCL1/KC/GRO, IL-10, IL-12, p70, and TNFα, following the manufacturer's instructions. Briefly, samples were diluted in the calibrator and added to the plate coated with an array of cytokine capture antibodies. Samples were incubated in the plate for 2 hours with shaking at room temperature, followed by washes with the wash buffer provided in the kit. The detection antibody solution was added to each well and the plate was incubated for 2 hours. The plate was washed with the wash buffer and the 2× Read Buffer T was added. The signal was immediately measured on a MESO QuickPlex SQ 120 instrument and was analyzed using the DISCOVERY WORKBENCH 4.0 software (Meso Scale Diagnostics, LLC., Rockville, Md., USA). Protein concentrations in the supernatants or the plasma samples were measured using the Pierce BCA protein assay kit (Thermo Scientific). Values in the graphs represent levels of cytokines normalized to the corresponding protein concentrations. […] Females (19 WtSOD1-Vehicle, 17 WtSOD1-Cromolyn, 19 TgSOD1-Vehicle, and 17 TgSOD1-Cromolyn) and Males (18 WtSOD1-Vehicle, 21 WtSOD1-Cromolyn, 21 TgSOD1-Vehicle, 17 TgSOD1-Cromolyn). […] The same pro-inflammatory panel from Meso Scale Discovery was used to assess the levels of cytokines and chemokines in the plasma of a subset of mice (Females: 13 WtSOD1-Vehicle, 15 WtSOD1-Cromolyn, 6 TgSOD1-Vehicle, and 6 TgSOD1-Cromolyn; and Males: 14 WtSOD1-Vehicle, 10 WtSOD1-Cromolyn, 6 TgSOD1-Vehicle, 3 TgSOD1-Cromolyn). We were able to measure 7 of the 10 pro-inflammatory cytokines in plasma which included IL-1β, IL-2, IL-5, IL-6, CXCL1, IL-10, and TNFα.

SOD1^G93A mouse model [4] = experiment: Survival; details: Mantel-Cox test
Description: 149 mice were used in this study. All animal care, husbandry and experimentation were performed according to the guidelines set by the Massachusetts General Hospital Subcommittee on Research Animal Care. These experiments were approved by the Massachusetts General Hospital Institutional Animal Care and Use Committee (2014N000018). All mice were given access to food and water ad libitum. Mice were assessed regularly for motor impairment and euthanized upon onset of major paralysis (neurological scoring=4, see Neurological Score below) to minimize suffering as described previously. […] The endpoint used in this study was based on previously reported criteria by ALS TDI, the loss of self-righting ability within 15 seconds (neurological score=4) or the inability to move to reach food on the cage floor. Mice that reached the humane endpoint were euthanized within 3 hours.
as §1

SOD1^G93A mouse model [5] = experiment: Paw Grip Endurance Test (PaGE); details: TgSOD1-Cromolyn vs TgSOD1-Vehicle
Description: The PaGE test was performed as previously described. Briefly, mice were placed on the wire lid of a conventional housing cage that was inverted and held at ˜45 cm above an open cage bottom. […] The largest value from three individual trials was used for analysis.
as §1

## O=C(O)c1cc(=O)c2c(OCC(O)COc3cccc4oc(C(=O)O)cc(=O)c34)cccc2o1 [cromolyn, cromolyn sodium]
[1]
  motor neuron survival (lumbar spinal cord motor neuron counts): significantly increased
SOD1^G93A mouse model [2]; TgSOD1-Cromolyn vs TgSOD1-Vehicle, all mice, P90, P100, P110, P130, P140
  neurological score: significantly delayed disease onset and progression
SOD1^G93A mouse model [2]; female mice, P90, P100, P120, P130, P140
  neurological score: significant increase in neurological score in the female TgSOD1-Vehicle treated group compared to TgSOD1-Cromolyn group
SOD1^G93A mouse model [2]; male mice, P90, P100, P110
  neurological score: significant increase in neurological score in male TgSOD1-Vehicle treated group compared to TgSOD1-Cromolyn group
[3]; TgSOD1-Cromolyn vs TgSOD1-Vehicle, p=0.0095
  IL-10 levels in plasma: significantly decreased
[3]; TgSOD1-Cromolyn vs TgSOD1-Vehicle, p=0.0211
  IL-2 levels in plasma: significantly decreased
[3]; TgSOD1-Cromolyn vs TgSOD1-Vehicle, p=0.0273
  IL-6 levels in plasma: significantly decreased
[3]; TgSOD1-Cromolyn vs TgSOD1-Vehicle, p=0.110
  TNFα levels in plasma: trend towards a decrease
[3]; between groups
  IL-1β levels in plasma: no statistically significant difference
  IL-5 levels in plasma: no statistically significant difference
SOD1^G93A mouse model [4]; all treated mice, p=0.1096
  survival: did not have a significant effect on survival
SOD1^G93A mouse model [4]; female mice, p=0.01
  survival: significant effect of treatment on female survival
SOD1^G93A mouse model [4]; male mice alone, p<0.8831
  survival: did not have a significant effect on survival
SOD1^G93A mouse model [5]; 6.3 mg/kg i.p., all mice, P120 and P140
  PaGE performance: significant improvement in PaGE performance
SOD1^G93A mouse model [5]; female mice, P100
  PaGE performance: greater deficits in PaGE performance
SOD1^G93A mouse model [5]; female mice, P140
  PaGE performance: significant improvement
SOD1^G93A mouse model [5]; male mice, P120
  PaGE performance: significant improvement in PaGE
